We go through 16 compounds from patent US20240246977A1, “DEGRADATION OF BRUTON'S TYROSINE KINASE (BTK) BY CONJUGATION OF BTK INHIBITORS WITH E3 LIGASE LIGAND AND METHOD OF USE” (BeiGene Switzerland GmbH, priority 2021, published 2024).

SMILES strings stand for the structures.

One experiment addresses BTK (Homo sapiens, UniProt Q06187). Kind of experiment: BTK cell degradation in TMD-8 cells, HTRF assay. To be noted: 6 h treatment, IC50 (DC50) of BTK degradation. In kind it is cell-based. Also noted: endogenous in cells; host or cells: TMD-8 cells. The procedure, abridged: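 TMD-8 cells treated 6 h with 8-dose series (6-fold dilutions, 0.2% DMSO final), then lysed and BTK quantified by HTRF (337/665/620 nm) after overnight antibody incubation at room temperature. Degradation normalized to DMSO high and low controls; DC50 and Dmax from four-parameter fit.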
(In general: Time-resolved FRET reads energy transfer from a long-lived donor to a nearby acceptor.)

The next experiment relates to HEK-293 cells. The experiment in a line: HEK-293 cytotoxicity detection (CellTiter-Glo). The format is cell-based. Particulars: Homo sapiens, 72 h, 72 h incubation, CellTiter-Glo luminescence, read-out: HEK293. The procedure, abridged:
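HEK-293 cells exposed 72 h to 8 compounds doses (4-fold dilutions, top stock 5 mM at 500×) in 0.2% DMSO. Viability by CellTiter-Glo luminescence; inhibition normalised to DMSO high control and low control, IC50 from four-parameter curve fit.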
For orientation: ATP-based viability assays read luminescence as a measure of living cells.

Usually DC50 stands for the concentration giving 50% degradation. Higher therefore signals a less potent degrader.

Chain of BTK (Q06187 whole entry): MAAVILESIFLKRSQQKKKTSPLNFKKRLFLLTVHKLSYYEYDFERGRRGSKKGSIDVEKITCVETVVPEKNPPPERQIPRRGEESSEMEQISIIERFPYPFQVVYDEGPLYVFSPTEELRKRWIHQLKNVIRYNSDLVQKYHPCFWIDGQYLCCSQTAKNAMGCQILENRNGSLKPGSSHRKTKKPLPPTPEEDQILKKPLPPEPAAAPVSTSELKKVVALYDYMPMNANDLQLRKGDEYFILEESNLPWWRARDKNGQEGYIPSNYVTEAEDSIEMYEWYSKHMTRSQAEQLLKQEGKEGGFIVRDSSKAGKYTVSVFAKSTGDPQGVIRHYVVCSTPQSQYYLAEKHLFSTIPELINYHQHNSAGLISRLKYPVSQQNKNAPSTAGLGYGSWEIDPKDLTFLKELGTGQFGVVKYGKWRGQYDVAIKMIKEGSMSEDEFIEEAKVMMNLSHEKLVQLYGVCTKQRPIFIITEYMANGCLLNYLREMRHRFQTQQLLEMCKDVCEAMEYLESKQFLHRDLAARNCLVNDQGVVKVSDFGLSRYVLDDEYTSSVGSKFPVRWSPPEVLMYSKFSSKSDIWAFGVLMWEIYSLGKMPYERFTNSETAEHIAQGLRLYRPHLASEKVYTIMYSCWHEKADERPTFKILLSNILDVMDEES

Turning to `Cc1cc(-c2nn3c(c2C(N)=O)Nc2ccc(N4CCN(CC5CCN(c6ccc(N7CCC(=O)NC7=O)cc6)CC5)CC4)cc2CC3)ccc1CNC(=O)c1noc(C(C)(C)C)n1` [Example C7, 5-(tert-butyl)-N-(4-(3-carbamoyl-7-(4-((1-(4-(2,4-dioxotetrahydropyrimidin-1(2H)-yl)phenyl)piperidin-4-yl)methyl)piperazin-1-yl)-9,10-dihydro-4H-benzo[d]pyrazolo[1,5-a][1,3]diazepin-2-yl)-2-methylbenzyl)-1,2,4-oxadiazole-3-carboxamide], half-maximal degradation at BTK (DC50) was put at 22.7 nM. In the experiment with HEK-293 cells, the IC50 is > 10000 nM.

`Cc1cc(-c2nn3c(c2C(N)=O)Nc2ccc(N4CCN(CC5CCN(c6ccc(N7CCC(=O)NC7=O)cc6)CC5)CC4)cc2CC3)ccc1CNC(=O)c1nc(C(C)(C)C)no1` [Example C8, 3-(tert-butyl)-N-(4-(3-carbamoyl-7-(4-((1-(4-(2,4-dioxotetrahydropyrimidin-1(2H)-yl)phenyl)piperidin-4-yl)methyl)piperazin-1-yl)-9,10-dihydro-4H-benzo[d]pyrazolo[1,5-a][1,3]diazepin-2-yl)-2-methylbenzyl)-1,2,4-oxadiazole-5-carboxamide] came in with a DC50 on BTK of 15.6 nM. Besides, the IC50 in the experiment with HEK-293 cells was > 10000 nM.

For `Cc1cc(-c2nn3c(c2C(N)=O)Nc2ccc(N4CCN(CC5CCN(c6ccc(N7CCC(=O)NC7=O)cc6)CC5)CC4)cc2CC3)ccc1CNC(=O)c1ccn(C(C)(C)C)n1` [Example C9, 2-(4-((1-(tert-butyl)-1H-pyrazole-3-carboxamido)methyl)-3-methylphenyl)-7-(4-((1-(4-(2,4-dioxotetrahydropyrimidin-1(2H)-yl)phenyl)piperidin-4-yl)methyl)piperazin-1-yl)-9,10-dihydro-4H-benzo[d]pyrazolo[1,5-a][1,3]diazepine-3-carboxamide], the DC50 at BTK was 54.2 nM. The IC50 in the experiment with HEK-293 cells is > 10000 nM.

Compound `COc1ccc2ccccc2c1C(=O)NCc1ccc(-c2nn3c(c2C(N)=O)Nc2ccc(N4CCN(CC5CCN(c6ccc(N7CCC(=O)NC7=O)cc6)CC5)CC4)cc2CC3)cc1C` [Example C10, 7-(4-((1-(4-(2,4-dioxotetrahydropyrimidin-1(2H)-yl)phenyl)piperidin-4-yl)methyl)piperazin-1-yl)-2-(4-((2-methoxy-1-naphthamido)methyl)-3-methylphenyl)-9,10-dihydro-4H-benzo[d]pyrazolo[1,5-a][1,3]diazepine-3-carboxamide] had a DC50 at BTK of 10.1 nM. Besides, in the experiment on HEK-293 cells, the IC50 was > 10000 nM.

Compound `COc1ccc(C(F)(F)F)cc1C(=O)NCc1ccc(-c2nn3c(c2C(N)=O)Nc2ccc(N4CCN(CC5CCN(c6ccc(N7CCC(=O)NC7=O)cc6)CC5)CC4)cc2CC3)cc1C` [Example C11, 7-(4-((1-(4-(2,4-dioxotetrahydropyrimidin-1(2H)-yl)phenyl)piperidin-4-yl)methyl)piperazin-1-yl)-2-(4-((2-methoxy-5-(trifluoromethyl)benzamido)methyl)-3-methylphenyl)-9,10-dihydro-4H-benzo[d]pyrazolo[1,5-a][1,3]diazepine-3-carboxamide] displayed a DC50 on BTK of 3.36 nM. The IC50 with HEK-293 cells was > 10000 nM.

In turn, `CC(C)(C)c1noc(C(=O)NCc2ccc(-c3nn4c(c3C(N)=O)Nc3ccc(N5CCN(CC6CCN(c7ccc(N8CCC(=O)NC8=O)cc7)CC6)CC5)cc3CC4)cc2)n1` [Example C12, 3-(tert-butyl)-N-(4-(3-carbamoyl-7-(4-((1-(4-(2,4-dioxotetrahydropyrimidin-1(2H)-yl)phenyl)piperidin-4-yl)methyl)piperazin-1-yl)-9,10-dihydro-4H-benzo[d]pyrazolo[1,5-a][1,3]diazepin-2-yl)benzyl)-1,2,4-oxadiazole-5-carboxamide] showed a DC50 on BTK of 1.82 nM. In addition, the IC50 in the experiment with HEK-293 cells was > 10000 nM.

Consider `COc1ccc2ccccc2c1C(=O)N[C@H](C)c1ccc(-c2nn3c(c2C(N)=O)Nc2ccc(N4CCN(CC5CCN(c6ccc(N7CCC(=O)NC7=O)cc6)CC5)CC4)cc2CC3)cc1` [Example C13, (R)-7-(4-((1-(4-(2,4-dioxotetrahydropyrimidin-1(2H)-yl)phenyl)piperidin-4-yl)methyl)piperazin-1-yl)-2-(4-(1-(2-methoxy-1-naphthamido)ethyl)phenyl)-9,10-dihydro-4H-benzo[d]pyrazolo[1,5-a][1,3]diazepine-3-carboxamide], for which, at BTK, it took 11.6 nM to reach half-maximal degradation (DC50). For the same compound, in the experiment on HEK-293 cells, the IC50 is > 10000 nM.

`COc1ccccc1C(=O)N[C@H](C)c1ccc(-c2nn3c(c2C(N)=O)Nc2ccc(N4CCN(CC5CCN(c6ccc(N7CCC(=O)NC7=O)cc6)CC5)CC4)cc2CC3)cc1` [Example C14, (R)-7-(4-((1-(4-(2,4-dioxotetrahydropyrimidin-1(2H)-yl)phenyl)piperidin-4-yl)methyl)piperazin-1-yl)-2-(4-(1-(2-methoxybenzamido)ethyl)phenyl)-9,10-dihydro-4H-benzo[d]pyrazolo[1,5-a][1,3]diazepine-3-carboxamide] registered a DC50 on BTK of 2.76 nM. Besides, the IC50 in the experiment with HEK-293 cells is > 10000 nM.

At BTK, `CC(Nc1cc(C(F)(F)F)ccn1)c1ccc(-c2nn3c(c2C(N)=O)Nc2ccc(N4CCN(CC5CCN(c6ccc(N7CCC(=O)NC7=O)cc6)CC5)CC4)cc2CC3)cc1` (centres unmarked) [Example C15, 7-(4-((1-(4-(2,4-dioxotetrahydropyrimidin-1(2H)-yl)phenyl)piperidin-4-yl)methyl)piperazin-1-yl)-2-(4-(1-((4-(trifluoromethyl)pyridin-2-yl)amino)ethyl)phenyl)-9,10-dihydro-4H-benzo[d]pyrazolo[1,5-a][1,3]diazepine-3-carboxamide] gave a DC50 of 14.6 nM. Moreover, the IC50 in the experiment on HEK-293 cells stood at 8850 nM.

For the compound `NC(=O)c1c(-c2ccc(C3(Nc4cc(C(F)(F)F)ccn4)CC3)cc2)nn2c1Nc1ccc(N3CCN(CC4CCN(c5ccc(N6CCC(=O)NC6=O)cc5)CC4)CC3)cc1CC2` [Example C16, 7-(4-((1-(4-(2,4-dioxotetrahydropyrimidin-1(2H)-yl)phenyl)piperidin-4-yl)methyl)piperazin-1-yl)-2-(4-(1-((4-(trifluoromethyl)pyridin-2-yl)amino)cyclopropyl)phenyl)-9,10-dihydro-4H-benzo[d]pyrazolo[1,5-a][1,3]diazepine-3-carboxamide], the DC50 on BTK was 60.1 nM. Further, in the experiment on HEK-293 cells, the IC50 was > 10000 nM.

Take `CCC(Nc1cc(C(F)(F)F)ccn1)c1ccc(-c2nn3c(c2C(N)=O)Nc2ccc(N4CCN(CC5CCN(c6ccc(N7CCC(=O)NC7=O)cc6)CC5)CC4)cc2CC3)cc1` (centres unmarked) [Example C17, 7-(4-((1-(4-(2,4-dioxotetrahydropyrimidin-1(2H)-yl)phenyl)piperidin-4-yl)methyl)piperazin-1-yl)-2-(4-(1-((4-(trifluoromethyl)pyridin-2-yl)amino)propyl)phenyl)-9,10-dihydro-4H-benzo[d]pyrazolo[1,5-a][1,3]diazepine-3-carboxamide]: the DC50 at BTK is 55.1 nM. The IC50 with HEK-293 cells was > 10000 nM.

`COc1ccncc1C(=O)N[C@H](C)c1ccc(-c2nn3c(c2C(N)=O)Nc2ccc(N4CCN(CC5CCN(c6ccc(N7CCC(=O)NC7=O)cc6)CC5)CC4)cc2CC3)cc1` [Example C18, (R)-7-(4-((1-(4-(2,4-dioxotetrahydropyrimidin-1(2H)-yl)phenyl)piperidin-4-yl)methyl)piperazin-1-yl)-2-(4-(1-(4-methoxynicotinamido)ethyl)phenyl)-9,10-dihydro-4H-benzo[d]pyrazolo[1,5-a][1,3]diazepine-3-carboxamide] yielded a DC50 at BTK of 12.5 nM. Moreover, the IC50 in the experiment on HEK-293 cells was > 10000 nM.

In the case of `COc1ccccc1C(=O)NCc1ccc(-c2nn3c(c2C(N)=O)Nc2ccc(N4CCN(CC5CCN(c6ccc(N7CCC(=O)NC7=O)cc6)CC5)CC4)cc2CC3)cc1F` [Example C19, 7-(4-((1-(4-(2,4-dioxotetrahydropyrimidin-1(2H)-yl)phenyl)piperidin-4-yl)methyl)piperazin-1-yl)-2-(3-fluoro-4-((2-methoxybenzamido)methyl)phenyl)-9,10-dihydro-4H-benzo[d]pyrazolo[1,5-a][1,3]diazepine-3-carboxamide], half-maximal degradation at BTK (DC50) was put at 0.848 nM. Moreover, the IC50 in the experiment on HEK-293 cells is 142 nM.

On BTK, `COc1ccc2ccccc2c1C(=O)NCc1ccc(-c2nn3c(c2C(N)=O)Nc2ccc(N4CCN(CC5CCN(c6ccc(N7CCC(=O)NC7=O)cc6)CC5)CC4)cc2CC3)cc1F` [Example C20, 7-(4-((1-(4-(2,4-dioxotetrahydropyrimidin-1(2H)-yl)phenyl)piperidin-4-yl)methyl)piperazin-1-yl)-2-(3-fluoro-4-((2-methoxy-1-naphthamido)methyl)phenyl)-9,10-dihydro-4H-benzo[d]pyrazolo[1,5-a][1,3]diazepine-3-carboxamide] registered a DC50 of 0.956 nM. Moreover, the IC50 in the experiment with HEK-293 cells was > 10000 nM.

Consider `COc1ccc(C(F)(F)F)cc1C(=O)NCc1ccc(-c2nn3c(c2C(N)=O)Nc2ccc(N4CCN(CC5CCN(c6ccc(N7CCC(=O)NC7=O)cc6)CC5)CC4)cc2CC3)cc1` [Example C21, 7-(4-((1-(4-(2,4-dioxotetrahydropyrimidin-1(2H)-yl)phenyl)piperidin-4-yl)methyl)piperazin-1-yl)-2-(4-((2-methoxy-5-(trifluoromethyl)benzamido)methyl)phenyl)-9,10-dihydro-4H-benzo[d]pyrazolo[1,5-a][1,3]diazepine-3-carboxamide], for which, on BTK, the DC50 was 0.703 nM. Further, the IC50 with HEK-293 cells was > 10000 nM.

The compound `COc1cccc(OC)c1C(=O)NCc1ccc(-c2nn3c(c2C(N)=O)Nc2ccc(N4CCN(CC5CCN(c6ccc(N7CCC(=O)NC7=O)cc6)CC5)CC4)cc2CC3)cc1` [Example C22, 2-(4-((2,6-dimethoxybenzamido)methyl)phenyl)-7-(4-((1-(4-(2,4-dioxotetrahydropyrimidin-1(2H)-yl)phenyl)piperidin-4-yl)methyl)piperazin-1-yl)-9,10-dihydro-4H-benzo[d]pyrazolo[1,5-a][1,3]diazepine-3-carboxamide] came in with a DC50 at BTK of 2.12 nM. Further, the IC50 in the experiment on HEK-293 cells was > 10000 nM.
